The text below walks through data of patent publication US6469013B2, “Therapeutic compounds” (Parker Hughes Institute, priority 1998, dated 2002).

Where two headings read alike, the source gives them in different places.

Data set [1] deals with T1, human JAK3 (Homo sapiens, UniProt P52333).
T1 sequence (P52333 1-1124): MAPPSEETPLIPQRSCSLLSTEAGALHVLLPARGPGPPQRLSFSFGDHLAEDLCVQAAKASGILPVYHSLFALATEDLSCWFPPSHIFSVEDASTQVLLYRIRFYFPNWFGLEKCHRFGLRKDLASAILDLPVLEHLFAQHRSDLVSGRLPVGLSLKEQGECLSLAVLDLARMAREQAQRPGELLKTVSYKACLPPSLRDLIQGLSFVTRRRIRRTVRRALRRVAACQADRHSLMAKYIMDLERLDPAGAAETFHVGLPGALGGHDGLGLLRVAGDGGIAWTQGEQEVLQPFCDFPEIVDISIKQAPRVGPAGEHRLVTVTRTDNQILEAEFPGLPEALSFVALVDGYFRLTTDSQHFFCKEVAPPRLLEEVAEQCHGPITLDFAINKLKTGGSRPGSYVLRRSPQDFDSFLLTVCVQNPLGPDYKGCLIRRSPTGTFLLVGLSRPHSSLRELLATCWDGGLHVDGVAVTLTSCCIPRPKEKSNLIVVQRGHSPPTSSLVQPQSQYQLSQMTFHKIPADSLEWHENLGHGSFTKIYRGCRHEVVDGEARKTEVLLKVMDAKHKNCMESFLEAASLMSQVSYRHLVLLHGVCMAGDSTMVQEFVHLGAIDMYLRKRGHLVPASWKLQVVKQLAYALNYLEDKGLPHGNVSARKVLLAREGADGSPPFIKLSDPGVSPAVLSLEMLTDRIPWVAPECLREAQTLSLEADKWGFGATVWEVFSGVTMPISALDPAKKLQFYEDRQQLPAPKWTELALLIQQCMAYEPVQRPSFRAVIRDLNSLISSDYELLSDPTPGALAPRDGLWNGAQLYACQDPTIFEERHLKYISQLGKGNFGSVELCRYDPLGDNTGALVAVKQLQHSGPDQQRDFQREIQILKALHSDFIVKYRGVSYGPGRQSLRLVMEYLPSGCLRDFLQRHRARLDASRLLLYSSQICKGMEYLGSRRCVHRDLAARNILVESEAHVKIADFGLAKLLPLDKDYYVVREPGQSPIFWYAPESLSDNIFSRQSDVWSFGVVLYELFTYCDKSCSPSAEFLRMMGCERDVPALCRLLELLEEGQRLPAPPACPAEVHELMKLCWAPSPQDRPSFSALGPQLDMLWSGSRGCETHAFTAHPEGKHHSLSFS
The data set can be described thus: JAK3 immune complex kinase assay (JAK3 immunoprecipitated from KL2 EBV-transformed B cell line). The data set is classed as biochemical. On the procedure:
(§1) In JAK3 immune complex kinase assays (17, 22), KL-2 EBV-transformed human lymphoblastoid B cells (native JAK3 kinase assays) or insect ovary cells (recombinant JAK3 kinase assays) were lysed with NP-40 lysis buffer (50 mM Tris, pH 8, 150 mM NaCl, 5 mM EDTA, 1% NP-40, 100 μM sodium orthovanadate, 100 μM sodium molybdate, 8 μg/ml aprotinin, 5 μg/ml leupeptin, and 500 μM PMSF) and centrifuged 10 min at 13000× g to remove insoluble material. Samples were immunoprecipitated with antisera prepared against JAK3. The antisera were diluted and immune complexes collected by incubation with 15 μl protein A Sepharose. After 4 washes with NP-40 lysis buffer, the protein A Sepharose beads were washed once in kinase buffer (20 mM MOPS, pH7, 10 mM MgCl2) and resuspended in the same buffer. Reactions were initiated by the addition of 25 μCi [γ^32P] ATP (5000 Ci/mMole) and unlabeled ATP to a final concentration of 5 μM. Reactions were terminated by boiling for 4 min in SDS sample buffer. Samples were run on 9.5% SDS polyacrylamide gels and labeled proteins were detected by autoradiography. Following electrophoresis, kinase gels were dried onto Whatman 3M filter paper and subjected to phosphorimaging on a Molecular Imager (Bio-Rad, Hercules, Calif.) as well as autoradiography on film. For each drug concentration, a kinase activity index (KA) was determined by comparing the kinase activity in phosphorimager units (PIU) to that of the baseline sample. In some experiments, cold kinase assays were performed, as described by (Uckun, F. M., et al., Clin. Can. Res. 4: 901-912, 1998).
We first used immune complex kinase assays to compare the effects of the synthesized dimethoxyquinazoline compounds on the enzymatic activity of human JAK3 immunoprecipitated from the KL2 EBV-transformed human lymphoblastoid B cell line.

The target in data set [2] is T2, recombinant murine JAK3 (Mus musculus, UniProt Q62137).
T2 sequence (Q62137 1-1100): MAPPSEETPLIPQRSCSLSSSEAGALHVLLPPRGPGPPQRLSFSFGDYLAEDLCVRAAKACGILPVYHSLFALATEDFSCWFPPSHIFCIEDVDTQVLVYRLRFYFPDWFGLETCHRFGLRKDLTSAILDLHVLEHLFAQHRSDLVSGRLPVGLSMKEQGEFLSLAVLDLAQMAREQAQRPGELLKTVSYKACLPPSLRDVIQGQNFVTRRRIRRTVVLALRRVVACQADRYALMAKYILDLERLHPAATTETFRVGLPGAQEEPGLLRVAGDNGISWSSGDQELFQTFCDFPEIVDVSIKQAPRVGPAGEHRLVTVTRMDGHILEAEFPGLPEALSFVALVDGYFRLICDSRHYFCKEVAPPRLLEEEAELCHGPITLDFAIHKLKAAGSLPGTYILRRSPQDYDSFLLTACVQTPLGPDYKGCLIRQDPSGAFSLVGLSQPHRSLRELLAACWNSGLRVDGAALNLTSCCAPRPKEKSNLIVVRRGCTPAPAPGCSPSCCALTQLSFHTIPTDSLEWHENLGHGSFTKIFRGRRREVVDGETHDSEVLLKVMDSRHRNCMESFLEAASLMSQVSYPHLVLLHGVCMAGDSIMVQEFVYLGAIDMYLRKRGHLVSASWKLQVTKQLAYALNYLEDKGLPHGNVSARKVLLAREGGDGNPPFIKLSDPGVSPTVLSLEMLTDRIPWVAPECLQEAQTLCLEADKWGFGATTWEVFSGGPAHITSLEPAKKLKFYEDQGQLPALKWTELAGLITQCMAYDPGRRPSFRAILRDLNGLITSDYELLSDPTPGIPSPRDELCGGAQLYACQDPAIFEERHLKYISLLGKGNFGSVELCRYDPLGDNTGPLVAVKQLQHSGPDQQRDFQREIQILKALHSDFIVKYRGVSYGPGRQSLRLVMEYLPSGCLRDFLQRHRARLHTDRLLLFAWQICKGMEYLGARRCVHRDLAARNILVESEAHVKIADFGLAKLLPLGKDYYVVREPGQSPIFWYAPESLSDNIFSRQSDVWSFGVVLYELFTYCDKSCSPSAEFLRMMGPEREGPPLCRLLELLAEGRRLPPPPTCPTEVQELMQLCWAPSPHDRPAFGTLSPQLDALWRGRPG
Briefly: Recombinant JAK3 immune complex kinase assay (baculovirus, Sf21). It counts as biochemical. As to the method:
Sf21 (IPLB-SF21-AE) cells (Vassilev, A., et al., J. Biol. Chem. 274: 1646-1656, 1999) derived from the ovarian tissue of the fall armyworm Spodotera frugiperda, were obtained from Invitrogen (Carlsbad, Calif.) and maintained at 26-28° C. in Grace's insect cell medium supplemented with 10% FBS and 1.0% antibiotic/antimycotic (GIBCO-BRL). Stock cells were maintained in suspension at 0.2-1.6×10^6/ml in 600 ml total culture volume in 1 L Bellco spinner flasks at 60-90 rpm. Cell viability was maintained at 95-100% as determined by trypan blue dye exclusion. Sf21 cells were infected with a baculovirus expression vector for BTK, SYK, JAK1, JAK2, or JAK3. Cells were harvested, lysed (10 MM Tris pH7.6, 100 mM NaCl, 1% Nonidet P40, 10% glycerol, 50 mM NaF, 100 μM Na3VO4, 50 μg/ml phenylmethylsulfonyl fluoride, 10 μg/ml aprotonin, 10 μg/ml leupeptin), the kinases were immunoprecipitated from the lysates, and their enzymatic activity assayed, as reported (Vassilev, A., et al., J. Biol. Chem. 274: 1646-1656, 1999; Uckun, F. M., et al., Science. 22: 1096-1100, 1996; Goodman, P. A., et al., J. Biol. Chem. 273: 17742-48, 1998; Mahajan, S., et al., Mol. Cell. Biol. 15: 5304-11, 1995; and Uckun, F. M., et al., Science. 267: 886-91, 1995). The immunoprecipitates were subjected to Western blot analysis as previously described (Vassilev, A., et al., J. Biol. Chem. 274: 1646-1656, 1999; and Uckun, F. M., et al., Science. 22: 1096-1100, 1996).
as §1, with “Following electrophoresis, kinase gels were dried onto Whatman 3M filter paper and subjected to phosphorimaging on a Molecular Imager (Bio-Rad, Hercules, Calif.) as well as autoradiography on film.” left out, “In some experiments, cold kinase assays were performed, as described by (Uckun, F. M., et al., Clin. Can. Res. 4: 901-912, 1998).” left out

[3] abbreviates: JAK3 kinase assay, KL2 cell-derived human JAK3, read-out: IC50.

One may read the IC50 as the concentration that inhibits the measured activity by half. As to `COc1cc2ncnc(Nc3cccc(Br)c3)c2cc1OC` [WHI-P79], the IC50 in data set [1] (setting [3]) is more than 300 µM.

Turning to `COc1cc2ncnc(Nc3cc(Br)c(O)c(Br)c3)c2cc1OC` [WHI-P97, 4-(3′,5′-dibromo-4′-hydroxyl-phenyl)-amino-6,7-dimethoxyquinazoline], in data set [1] (setting [3]), the IC50 stood at 11 µM. The melting point is the temperature, or range, at which the solid turns liquid. For the molecule `COc1cc2ncnc(Nc3ccc(C)c(Br)c3)c2cc1OC` [WHI-P111], the melting point is 225 to 228 °C. The IC50 in data set [1] (setting [3]) was more than 300 µM.

In the case of `COc1cc2ncnc(Nc3ccccc3O)c2cc1OC` [WHI-P132], in data set [1], the half-maximal inhibitory concentration (IC50) is more than 300 µM. Also, in data set [1] (biological assays), the “activity against JAK3 (in words)” value is “inactive against JAK3”. `COc1cc2ncnc(Nc3ccc(O)c(Br)c3)c2cc1OC` [WHI-P154, 4-(3′bromo4′-hydroxyl-phenyl)-amino-6,7-dimethoxyquinazoline]: the IC50 in data set [2] (recombinant murine JAK3) was 128 µM; in data set [2] (recombinant murine JAK3, converted from μg/ml), approximately 128 µM.

Take `COc1cc2ncnc(Nc3ccc(O)c(Cl)c3)c2cc1OC` [WHI-P197]: the melting point was 245 °C (dec.). As to `COc1cc2ncnc(Nc3ccccc3)c2cc1OC` [WHI-P258, 4-(phenyl)-amino-6,7-dimethoxyquinazoline], the IC50 in data set [1] (setting [3]) was more than 300 µM.
